Earlier results on one molecule are cited in patent US11717525B2, “Transdermal and/or topical delivery system comprising clobazam” (Alpha to Omega Pharmaceutical Consultants, Inc., priority 2015, dated 2023).

Each structure is given as a SMILES string.

For data set [1] the following is noted: 25° C., practically insoluble.
The conditions of data set [2]: oral administration.
For data set [3] the following is noted: lipophilic in nature.

On to `CN1C(=O)CC(=O)N(c2ccccc2)c2cc(Cl)ccc21` [Clobazam], for which the solubility in water in data set [1] is recorded as 70 microgram/ml (μg/ml). The “absorbed when taken orally” value in data set [2] is given as 87%. Besides, the “Log P” value in data set [3] is “around 2.1”.
